Laboratory results reported in patent US20260137788A1, “INFLAMMATION STIMULI RESPONSIVE PEPTIDE BRUSH POLYMERS” (NORTHWESTERN UNIVERSITY, priority 2021, published 2026).
Ends that are not written are not given here.

Legend:
[1] = system: Sprague Dawley rats, IR MI; assay: Efficacy on LV function by MRI; assay type: in vivo, rat; conditions: tail-vein injection 1-day post-MI, MRI 3 days and 5 weeks post-injection
Protocol: Methods 5.1: Assessing Efficacy of L-PLPMMPi on LV Function. Male and female Sprague Dawley rats undergo IR procedures as previously described in Example 2. Prior to surgery, all animals undergo magnetic resonance imaging (MRI) to establish a baseline for LV ejection fraction (EF), wall thickness, end diastolic volume (EDV), and end systolic volume (ESV). […] MRI is performed at 3 days and 5 weeks (n=7 per sex for saline, MMPi, L-PLP, and L-PLPMMPi treated animals with randomized groups for each harvest timepoint) post-injection to assess cardiac function via LV EF, wall thickness, EDV, and ESV. For power analysis, an a value of 0.05 and a power of 0.8 was used to determine experimental sample sizes with additional rats based on an expected 30% mortality from surgical procedures. A 2-way ANOVA with post-hoc Tukey Test is then performed with significance at α=0.05.

[2] = Diffusion Ordered Spectroscopy (DOSY) NMR diffusion rate; assay type: physicochemical; conditions: in deuterated water
Protocol: ^1H Nuclear Magnetic Resonance (^1H NMR): ^1H NMR data was recorded on either a Bruker Avance III HD 500 MHz spectrometer, a Bruker Avance III 600 MHz spectrometer, or a Bruker Neo 600 MHz spectrometer. The 500 MHz spectrometer was primarily used for small molecule characterization, the Bruker Avance III 600 MHz spectrometer was used for polymerization kinetics studies, and the Bruker Neo 600 MHz spectrometer was used for diffusion ordered spectroscopy (DOSY) studies done on PLPs in deuterated buffered saline. ^1H NMR chemical shifts are given in reference to residual proton peaks from either the DMSO-d6 or the DMF-d7 solvent.
(§1) Characterization Results: The molar mass of both unlabeled and labeled AAK20 PLPs were analyzed by SDS PAGE using a polyacrylamide gel with a pore gradient of 4-15% (cat #: 4561083) and Precision Plus Kaleidoscope Protein Standard (cat #: 1610395). The mass of both AAK20 and Cy5.5-AAK20 samples were ˜20 kDa and found to correspond with the average molecular weight of an AAK PLP with a DP of 20 (FIG. 9A). […] The diffusion rate of AAK20 in deuterated water was analyzed by Diffusion Ordered Spectroscopy (DOSY) NMR. […] Additional physical characterization of AAK20 by dry state Transmission Electron Microscopy (TEM) was performed to provide complementary data to SDS PAGE, DLS, and DOSY NMR.

[3] = Dry state Transmission Electron Microscopy (TEM); assay type: physicochemical
Protocol: as §1

[4] = Dynamic Light Scattering (DLS) average diameter; assay type: physicochemical; conditions: in PBS
Protocol: as §1

Compound | LV ejection fraction (EF), pre- vs post-MI (MRI) [1] | end diastolic volume (EDV), pre- vs post-MI (MRI) [1] | end systolic volume (ESV), pre- vs post-MI (MRI) [1] | wall thickness, pre- vs post-MI (MRI) [1] | diffusion rate by DOSY NMR [2] | morphology by dry state TEM [3] | average diameter by DLS [4] [nm]
CC(C)[C@H](NS(=O)(=O)c1ccc(-c2ccc(Br)cc2)cc1)C(=O)O [MMPi, PD166793] | decreased | increased | increased | negligible differences |  |  | 
AAK20: PLP made by ROMP of norbornene AAK monomer (SEQ ID NO: 142, AAKAAKAA) at 20 molar equivalence to Grubbs catalyst; unlabeled (AAKAAKAA-NH2; also: norbornene monomer polymerized by ROMP into PLP) |  |  |  |  | approximately 1×10^−6 cm^2/s | nanoscale globular assemblies | < 10
